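Briefly, cells in 96-well plates were exposed to five compound concentrations for 48 h, and endpoints were estimated by linear interpolation. Abbreviation: GI50, concentration required for 50% inhibition of growth. TGI: concentration producing complete growth inhibition.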
Legend:
Experiment in all cases: NCI-60 cell line screen, 48 h
CCRF-CEM leukemia = system: CCRF-CEM leukemia
COLO 205 colon = system: COLO 205 colon
HOP-92 NSCLC = system: HOP-92 NSCLC
IGROV1 ovarian = system: IGROV1 ovarian
K-562 leukemia = system: K-562 leukemia
MOLT-4 leukemia = system: MOLT-4 leukemia
OVCAR-4 ovarian = system: OVCAR-4 ovarian
RPMI-8226 leukemia = system: RPMI-8226 leukemia
SK-MEL-5 melanoma = system: SK-MEL-5 melanoma
SNB-75 CNS = system: SNB-75 CNS

SMILES	TGI (CCRF-CEM leukemia) [µM]	TGI (COLO 205 colon) [µM]	TGI (HOP-92 NSCLC) [µM]	TGI (IGROV1 ovarian) [µM]	TGI (K-562 leukemia) [µM]	TGI (MOLT-4 leukemia) [µM]	TGI (OVCAR-4 ovarian) [µM]	TGI (RPMI-8226 leukemia) [µM]	TGI (SK-MEL-5 melanoma) [µM]	TGI (SNB-75 CNS) [µM]	GI50 (CCRF-CEM leukemia) [nM]	GI50 (COLO 205 colon) [nM]	GI50 (HOP-92 NSCLC) [nM]	GI50 (IGROV1 ovarian) [nM]	GI50 (K-562 leukemia) [nM]	GI50 (MOLT-4 leukemia) [nM]	GI50 (OVCAR-4 ovarian) [nM]	GI50 (RPMI-8226 leukemia) [nM]	GI50 (SK-MEL-5 melanoma) [nM]	GI50 (SNB-75 CNS) [nM]
O=C1c2ccccc2C2(O)Oc3cccc(O)c3C12O (stereo unspecified)	> 100	> 100	> 100	> 100	> 100	> 100	> 100	> 100	> 100	> 100	–	–	–	–	–	–	–	–	–	–
Cn1cnc([N+](=O)[O-])c1Sc1nnc(C(F)(F)F)n1C	48.4	28.8	34.7	> 100	63.6	38.2	62.6	49.9	> 100	> 100	–	–	–	–	–	–	–	–	–	–
O=C1NC(=S)NC(=O)C1=Cc1ccc2ccccc2n1	> 100	> 100	> 100	> 100	> 100	> 100	> 100	> 100	> 100	> 100	–	–	–	–	–	–	–	–	–	–
C=C(C(=O)OC)[C@@H]1C[C@@H](O)[C@]2(C)CC/C=C(\C)CCC[C@H](C)[C@H](O)C1O2	46	> 100	45.4	73.5	62.2	46.5	> 100	59	79.5	> 100	24200	36100	3710	22700	22200	18700	78800	27600	26300	> 100000
O=C(/C=C/c1ccc(Cl)cc1)c1ccncc1	> 100	> 100	> 100	> 100	> 100	60.3	> 100	> 100	> 100	83.6	–	–	–	–	–	–	–	–	–	–
CC(C)(CCC(C)(C)c1ccccc1)c1ccccc1	39.9	33.5	37.9	79.7	61.2	41.4	39.7	36.1	28.5	36.7	–	–	–	–	–	–	–	–	–	–
COc1ccc(-c2c(C#N)c(N)nc3c2CCCc2ccc(F)cc2-3)cc1OC	> 92.8	> 38.1	> 100	> 100	> 100	> 100	> 29.9	1.61	0.483	> 100	< 10.5	4890	4730	131	< 10	< 10	1280	< 10	–	1360
COC(=O)[C@H](Cc1ccccc1)NC(=O)[C@@H](OC)[C@@H]1Cc2cc3cc(OC4CC(OC5CC(O)C(O)C(C)O5)C(O)C(C)O4)c(C)c(O)c3c(O)c2C(=O)[C@H]1OC1CC(OC2CC(OC3CC(C)(O)C(O)C(C)O3)C(O)C(C)O2)C(O)C(C)O1 (stereo partly specified)	> 14.3	0.0682	0.202	> 14.3	> 14.3	0.161	> 14.3	0.073	0.0357	0.0575	13.7	18.2	4.51	9.02	31.2	17	27.7	10.9	6.91	18.6
CCOC(=O)C1(C(=O)OCC)CC=C(C)CC12C(=O)Nc1ccccc12 (stereo unspecified)	> 100	> 100	> 100	> 100	> 100	> 100	> 100	> 100	> 100	> 100	–	–	–	–	–	–	–	–	–	–
COc1ccc(C(=O)N/N=C/c2ccc(O)cc2O)cc1Nc1ccnc(C(F)(F)F)c1	1.44	14.3	8.43	23.4	> 35.6	2.59	–	30.8	5.03	49.8	128	323	347	575	485	357	270	1160	534	2220
C#CC#CC#CC#CC#CC#CC#CC#CCC1OC[C@H](COC(=O)O[C@@H](C(=O)O[C@H]2C[C@@]3(O)[C@@H](OC(=O)c4ccccc4)[C@@H]4[C@]5(OC(C)=O)CO[C@@H]5C[C@H](O)[C@@]4(C)C(=O)[C@H](OC(C)=O)C(=C2C)C3(C)C)[C@@H](NC(=O)c2ccccc2)c2ccccc2)O1 (stereo partly specified)	> 33.3	> 33.3	> 33.3	> 33.3	> 33.3	> 33.3	> 33.3	> 33.3	> 33.3	0.648	632	202	> 18500	424	255	443	> 33300	114	1470	72.7
COc1cccc(C2C(C#N)=C(N)Oc3cc(OC)ccc32)c1 (stereo unspecified)	> 45.7	0.529	25.2	> 50.9	> 100	> 37.4	> 96.8	23.7	1.69	> 49.6	32.8	46.4	82.2	62.2	20.3	59.8	1960	37.2	45.5	26.3
Clc1ccc(-c2cn(-c3ccccc3)c(-c3ccccc3)n2)c(Cl)c1	> 50	3.03	> 50	> 44.8	> 50	> 50	1.81	> 10.2	> 50	2.2	2510	1140	11700	2920	> 24600	> 20500	884	4930	48500	864
COc1ccc(N2C(=O)C3c4[nH]c5ccccc5c4C4CCC(C(C)(C)C)CC4C3C2=O)cc1OC (stereo unspecified)	98.5	> 100	44.8	> 100	84.5	43.9	52.2	61.5	> 100	32.5	–	–	–	–	–	–	–	–	–	–
Oc1ccc(-c2nc3ccc4[nH]ncc4c3c3c2CCCC3)c2cccnc12	11.8	2.42	0.794	4.06	33.3	12.8	6.06	4.12	1.56	1.06	204	890	110	196	139	393	781	158	597	132
COC(=O)c1ccccc1N=Cc1ccc(N(CCC#N)S(=O)(=O)c2ccccc2)cc1	> 100	> 100	> 100	> 100	> 100	> 100	> 100	> 100	> 100	> 100	–	–	–	–	–	–	–	–	–	–
CCc1nc(N)nc(N)c1-c1ccc(Cl)c(N=NN(C)C)c1	> 73.2	50.7	> 100	> 95.5	> 65	73.5	> 46.4	49	50.2	> 100	–	–	–	–	–	–	–	–	–	–
COc1cc(/C=C2\CCc3ccccc3C2=O)cc(OC)c1OC	75.1	30.7	24.5	–	> 100	40.7	60.8	31.3	25.3	53.6	–	–	–	–	–	–	–	–	–	–
CC(C)[C@@H](CS(=O)(=O)C(C)C)N1C(=O)[C@@](C)(CC(=O)O)C[C@H](c2cccc(Cl)c2)[C@H]1c1ccc(Cl)cc1	66.1	34.4	36.3	> 85.1	> 100	11.1	> 75.9	53	17.2	> 85.8	18200	14700	12900	8610	18300	338	7450	15000	1960	12200
COc1cc2c3c(n(C)c(=O)c2cc1OC)-c1cc2c(cc1/C3=C\[C@@H](N)CCCCN)OCO2	> 100	> 86.3	29.4	> 100	> 72.2	3.45	99	35.2	–	> 41.3	996	2800	1700	2240	2430	389	1260	2570	–	985
COc1cc(/C=C/C(=O)c2cc(OC)c(OC)c(OC)c2)cc(OC)c1OC	> 100	25.8	20.5	–	> 100	48.6	57.8	19.4	21.1	9.41	2250	9090	2530	–	2460	2800	3630	2560	8330	2310
Cc1nn(C)c(=S)n(C)c1=O	> 100	15.4	1.42	53.2	> 100	> 100	> 100	14.8	–	2.73	–	–	–	–	–	–	–	–	–	–
CC1(CO)C(=O)OC12CCCCC2 (stereo unspecified)	> 100	> 100	> 100	> 100	> 100	> 100	> 100	> 100	–	> 100	–	–	–	–	–	–	–	–	–	–

— PubChem BioAssay (NCI)
